Patent publication US4360509A, “Vivo radioassay process” (priority 1979, dated 1982)
“Also recorded” adds a separate entry of the source.

How the values were obtained:
[1] = Description: The clearance of In-111 from the blood of the goats was followed after intravenous injection of In-111 in three different formulations, namely In-111-chloride, In-111-oxinate and In-111-oxinate labeled granulocytes, respectively, in order to determine the biological half life for each of these different formulations. After injection, 10 ml blood samples were taken at intervals. All blood samples were subjected to differential centrifugation in order to determine whether the radioactivity was localized in the plasma, platelets, red cell fraction or leukocytes. Platelet rich plasma (PRP) was prepared by centrifugation of heparinised blood at 200 g during 15 minutes. After sampling of the PRP (1 ml) the residue was centrifuged at 1600 g for 10 minutes. 1 ml samples were taken from the plasma layer (platelet poor plasma=PPP), from the interface between plasma and red cells (leukocytes) and from the red cell fraction. The radioactivities were determined and clearance was determined corrected for physical decay.
The clearance of In-111 from the blood of goats was followed after intravenous injection of In-111 in three different goats and formulations,namely, In-111-chloride, In-111-oxinate and In-111-oxinate labeled granulocytes, respectively, in order to determine the biological half-life of In-111.
The clearance of In-111 in a goat which was injected with In-111-oxinate labeled granulocytes was also studied.

blood cells = test: Washing of blood cells with PBS (binding of radioactivity to blood cells after injection); conditions: goat blood cells
bacterial abscesses = test: Gamma camera scintigraphy of bacterial abscesses in goats; format: in vivo; conditions: goat; for abscess visibility by gamma camera, adjoining bacterial abscesses of 2 months and three days old: about 1 mCi, imaged the next day
Description: Bacterial abscesses were also evoked in goats in accordance with the following procedure: 4 Droppings (faeces) of goats were stirred in 10 ml phosphate-buffered, saline solution (pH 7.2), emulsified in 10 ml mineral oil (Freund's complete adjuvant), and injected subcutaneously into four goats (2.5 ml per goat) at the left flank of the abdomen. Within a day the goats developed fever (temperature rose from 39.3° to over 40° C.) and a firm abscess with a diameter of about 10 cm. appeared.
In order to prepare granulocyte suspensions blood was sampled from a goat via the neck vein, and anticoagulated by the addition of heparin. The granulocytes were purified by a known sedimentation technique. The separation fluid consisted of: 10 Parts of Isopaque (sodium metrizoate) (32.8%) mixed with 24 parts Ficoll (Pharmacia) 8% (in H2 O). The density was: 1.077 g/ml. Equal parts of anticoagulated blood and 0.9% NaCl were mixed and 20 ml of the mixture was layered over 10 ml of Isopaque-Ficoll in a centrifuge tube. The mixture was centrifuged at 1000 g for 15 minutes. After centrifugation the mononuclear cells (monocytes and lymphocytes) were found as a narrow band at the interface between the plasma layer and the separation fluid. The layer above the erythrocyte sediment, also containing granulocytes, was removed down to 1 to 2 mm above the erythrocyte meniscus. The erythrocyte layer was mixed with a 3 to 5 fold volume of phosphate-buffered saline solution and centrifuged for 7 minutes at 1200 g. The supernatant was pipetted-off down to the erythrocyte meniscus. The erythrocytes were lysed by addition of 30 ml 155 mM NH4 Cl solution (also containing 10 mM KHCO3 0.1 mM EDTA) pH 7.4, mixing and 15 minutes storage at 4° C. After centrifugation (400 g) the granulocytes were resuspended in NH4 Cl solution (15 ml) 0.5% albumin and stored 15 minutes at 4° C. After microscopic control the cells were washed in PBS containing 0.5% albumin and were consecutively suspended in 5 ml PBS containing 0.5% albumin. In that condition the cells are ready for indium-111-oxinate labeling.
Indium-111-oxinate labeled granulocytes were made by the Thakur procedure. In this preparation 2×50 ml conical centrifuge tubes are sterilized at 120° C. for 2 hours. In-111 Cl3 (Byk-Mallinckrodt CIL B.V.) 0.1 M HCl solution (5 mCi/ml) is used. 1 ml H2 O is added for injection, as are 50 μl oxine (BDH or Merck) solution (1 mg/ml in ethanol), and 200 μl acetate buffer 0.3 M pH 5.6 after a short wait of about a minute. The In-111-oxinate is extracted into about 2 ml CHCl3, and is evaporated to dryness by heating in a water bath. The material is dissolved in 100 μl absolute ethanol and again evaporated and dissolved in 50 μl absolute ethanol. […]

[2] = Tissue distribution of In-111 in goats with bacterial abscesses (radioactivity per gram of tissue, scintillation counter); conditions: goat
Description: The distribution of In-111 was determined in the different organs and tissues of three goats. One goat was injected with In-111-oxinate labeled autologous granulocytes, one with plain In-111-oxinate and one with plain In-111-chloride. The injections with the isotope formulations took place 2 days before the animals were sacrificed and dissected. Pieces of abscess, organs and tissues were sampled, weighed and the radioactivity was measured in a scintillation counter. The radioactivities per gram of tissue were determined.
The tissue distribution of In-111 in the goat was determined to show the distribution of radioactivity among the organs.
In order to illustrate the process of the invention a goat with adjoining bacterial abscesses of 2 months and three days old was injected with In-111-oxinate (ca. 1 mCi). The goat was imaged by gamma camera the next day. […] The goat was sacrificed and the distribution of radioactivity between the different tissues and organs determined.
The goat that was intravenously injected with In-111-chloride was dissected two days after the injection, and the distribution of radioactivity among the different tissues and organs determined.

[3] = intravenous, two days after the injection

In the case of `[111In+3].[O-]c1cccc2cccnc12.[O-]c1cccc2cccnc12.[O-]c1cccc2cccnc12` [In-111-oxinate], the “course of radioactivity in blood after injection (another goat)” value ([1]; another goat) is reported as “gradual decrease of radioactivity immediately after the goat was injected”, the “preference of the cells for the agent (another experiment in another goat)” value ([1]; another goat) is reported as “strong preference of the cells” and the “preference of indium-111 for white cells” value ([1]; another goat, sample had about an equal amount of plasma) is reported as “no preference of indium-111 for white cells”. The “time of optimal accumulation in the cell fraction of the blood” value ([1]; goat, after injection) was “five”, the “In-111 activity level in blood after two days” value ([1]; goat, intravenous) was “very slow decline of the activity level” and the “In-111 level in the blood, first two days” value ([1]; goat, intravenous) was “gradual increase of In-111 in the blood for two days”. For the same compound, the “radioactivity in the blood one week later” value ([1]; goat, intravenous) was “still a significant amount of radioactivity in the blood”, the “preference of In-111 for the cell fraction of the blood” value ([1]; goat, intravenous, clearance study) was “clear preference of In-111 to accumulate in the cell fraction of the blood” and the “binding of radioactivity to blood cells on washing with PBS” value (blood cells) was “firmly bound”. For the same compound, the “abscess visibility by gamma camera, adjoining bacterial abscesses of 2 months and three days old” value (bacterial abscesses) was “clear spot”, the “accumulation of In-111 in the cell fraction of the blood (tissue distribution study)” value [2] was “strong accumulation of In-111 in the cell fraction of the blood, almost as much as the radioactivity per gram of tissue of the spleen” and the “accumulation of radioactivity in fat, muscle, marrow from the femur, gall, faeces, pancreas and urine” value [2] was “no significant accumulation of radioactivity”. For the same compound, the “accumulation of radioactivity in heart muscle” value [2] was “moderate accumulation of In-111”, the “radioactivity in pus of the old and new abscesses” value [2] was “little radioactivity” and the “accumulation of In-111 in tissue of the old abscess” value ([2]; 2 months old abscess) was “high accumulation of In-111, similar to the kidney and ovarium”. The “radioactivity of inflamed lymph node relative to a non-inflamed one” value ([2]; 2 days after injection) was “two” and the “radioactivity accumulation in tissue of the new abscess” value ([2]; three days old abscess) was “moderate radioactivity accumulation more than, for example, the lymph node and muscles, but far less than ovarium, uterus, lung, kidney, spleen and blood”.

In the case of `[Cl][111In]([Cl])[Cl]` [In-111-chloride], the “clearance of indium from blood, four days” value ([1]; goat, intravenous) is reported as “almost disappeared in four days”, the “clearance of indium from blood, level within two days” value ([1]; goat, intravenous) is reported as “decline to a very low level of radioactivity within two days” and the “binding of radioactivity to blood cells on washing with PBS” value (blood cells) is reported as “could be easily washed out; also recorded: could be washed out by PBS”. For the same compound, the “abscess visibility by gamma camera, adjoining bacterial abscesses of 2 months and three days old” value (bacterial abscesses) was “well-visible spot”, the “abscess visibility by gamma camera, bacterial abscesses of 2 months and three days old, subcutaneous injection” value (bacterial abscesses; ca. 1 mCi, accidental subcutaneous injection, twenty-four hours later) was “distinct, well-visible spot” and the “spread of radioactivity after subcutaneous injection” value (bacterial abscesses; ca. 1 mCi, subcutaneous) was “spread via the peripheral vascular system, not via the neck vein to the heart and the lungs”. The “accumulation of In-111 in the cell fraction of the blood (tissue distribution study)” value [2] was “only a small amount of In-111 accumulated in the blood cells”, the “radioactivity in pus of the old and new abscesses” value [2] was “hardly any radioactivity” and the “radioactivity in the kidney” value ([2]; 2 days after injection) was “strongly labeled”. The “radioactivity of inflamed lymph node relative to a non-inflamed one” value ([2]; 2 days after injection) was “three”, the “accumulation of In-111 in fat, urine and gall” value [2, 3] was “no significant accumulation of In-111” and the “accumulation of radioactivity in intraperitoneally penetrated part of the abscess” value [2, 3] was “slightly higher accumulation of radioactivity, but the accumulation was less than in the old abscess in the In-111-oxinate study”. The “accumulation of radioactivity in the spleen and liver” value [2, 3] was “moderate accumulations of radioactivity”, the “distribution of blood radioactivity between plasma and cells” value [2, 3] was “Most of the radioactivity was in the plasma, not in the cells” and the “labeling of the blood” value [2, 3] was “very moderately labeled”. The “radioactivity in tissue of old and new abscesses” value [2, 3] was “moderate radioactivity, somewhat more than lymph node and muscle, far less than ovarium, uterus, lung and kidney”.
